Measurements published in the Biogen ADME set (Fang et al. 2023).
Converted amounts (≈) assume the structure as drawn.

Conditions: for aqueous solubility: pH 6.8

| SMILES | intrinsic clearance, human liver microsomes [mL/min/kg] | intrinsic clearance, rat liver microsomes [mL/min/kg] | MDR1-MDCK efflux ratio | aqueous solubility [µg/mL] | fraction unbound, human plasma | fraction unbound, rat plasma |
| --- | --- | --- | --- | --- | --- | --- |
| O=C(CCc1ccc(-c2ccccc2)o1)N1CCC(n2c(=O)[nH]c3ccccc32)CC1 | 255 | 1760 |  |  |  |  |
| CN(C)c1ccc2c(c1)OCCN2C(=O)NCc1cccnc1 | 23.6 | 746 | 2.66 | 48.1 (≈ 154 µM) |  |  |
| Cc1cc(-c2cccc3ccnn23)nc(N2CCCC2)n1 | 122 | 1600 |  |  |  |  |
| O=c1n(CCn2ccnc2)nnn1-c1cccs1 | ≤ 4.74 | 55.6 | 0.738 |  |  |  |
| CCOC(=O)N1CCc2cc(NC(=O)c3oc(C)cc3C)ccc21 | 11.5 | 118 |  |  |  |  |
| O=c1[nH]nc(CCCN2CCOCC2)n1-c1cccc(Cl)c1 | ≤ 4.74 | 28.1 | 25.6 | 40.4 (≈ 125 µM) |  |  |
| C[C@@H]1Cc2ccccc2N1C(=O)Cn1nc(-c2cccc3ncccc23)oc1=O | 73.8 | 1080 | 0.843 |  | 0.0168 | 0.0229 |
| Cc1cc(CN2CCC(N(C)c3ncc(Cl)cn3)CC2)on1 | 16 | 127 | 0.58 |  |  |  |
| CCC(=O)NCc1cc(C2CC2)n(C2CCCC2)n1 | 10.1 | 218 | 1.05 | 25 (≈ 95.7 µM) |  |  |
| CO[C@H]1/C=C\C=C(/C)C(=O)NC2=CC(=O)C(NCCN(C)C)=C(C[C@@H](C)C[C@@H](OC)[C@@H](O)[C@@H](C)/C=C(\C)[C@H]1OC(N)=O)C2=O | 21 | 73.6 | 61.5 |  |  |  |
| OCC1CCCCN1Cc1ccc(Cl)c(Cl)c1 (configuration not stated) | ≤ 4.74 | 299 | 0.524 | 42 (≈ 153 µM) | 0.246 | 0.305 |
| Cn1ncnc1COc1nn2c(-c3c(F)cccc3F)nnc2cc1C1CCC1 | ≤ 4.74 | 40.8 | 73.4 | 41.4 (≈ 104 µM) |  |  |
| CC1(CNC(=O)c2cncc(C3CCNCC3)n2)CCCO1 (configuration not stated) | ≤ 4.74 | 21.3 |  |  | 0.974 | 0.912 |
| Cc1ccc(C(=O)NC[C@H]2Cn3ccnc3CO2)cc1 | ≤ 4.74 | ≤ 10.7 | 7.94 | 30.4 (≈ 112 µM) |  |  |
| CC(C)(C)n1ncc(OCc2ccc(OCCOCCO)nc2)c(Cl)c1=O | 8.19 | 88.1 | 4.55 | 32.5 (≈ 81.7 µM) |  |  |
| Cc1c(C(=O)Nc2cnccn2)cccc1-c1ccccn1 | ≤ 4.74 | 496 |  |  |  |  |
| CCn1cnnc1CN(C)C1CCN(c2ccccc2F)CC1 | ≤ 4.74 | 340 | 2.68 |  |  |  |
| Cc1ccc2c(c1)c(Cn1ccnc1-c1cccc(C)n1)nn2C | 122 | 1920 | 0.679 | 32.9 (≈ 103 µM) |  |  |
| COc1ccc(CN(C)C(=O)C2(C#N)CCC2)cc1 |  |  |  | 56.6 (≈ 219 µM) |  |  |
| N#C/C(=C\c1cnn(Cc2ccccc2)c1)c1nc2cc(Cl)ccc2c(=O)[nH]1 |  |  | 1.17 | 0.17 (≈ 0.438 µM) |  |  |
| Cc1oc(C)c(C(=O)Nc2ccn(C)n2)c1C | 75.4 | 93.7 | 0.597 | 36.7 (≈ 157 µM) |  |  |

| SMILES | intrinsic clearance, human liver microsomes [mL/min/kg] | intrinsic clearance, rat liver microsomes [mL/min/kg] | MDR1-MDCK efflux ratio | aqueous solubility [µg/mL] | fraction unbound, human plasma | fraction unbound, rat plasma |
| --- | --- | --- | --- | --- | --- | --- |
| O=S(=O)(N1CCOCC1)N1CCN(Cc2ccccc2F)CC1 | 21 | 676 | 0.958 | 36 (≈ 105 µM) |  |  |
| CCN(CC)C(=O)c1ccc(NC(C)=O)cc1 | ≤ 4.74 | 25.6 | 1.95 | 34.6 (≈ 148 µM) |  |  |
| CNC(=O)C1CCN(Cc2ncc(-c3ccc(F)cc3)o2)CC1 | ≤ 4.74 | 11.2 | 4.86 | 19.8 (≈ 62.4 µM) |  |  |
| CC(C)OC(=O)N1CCC(Oc2ncnc3c2cnn3-c2ccc(S(C)(=O)=O)cc2F)CC1 |  |  | 1.61 |  |  |  |
| O=C(CSc1ccccn1)N1CCSc2ccccc21 | 426 | 6400 | 0.586 |  |  |  |
| Cc1ccc(C(=O)NCCc2csc(C)n2)cn1 | 7.45 | 11.3 | 0.918 | 40.4 (≈ 155 µM) |  |  |
| NC(=O)Cn1nnc(-c2ccccc2F)n1 |  |  |  | 11.6 (≈ 52.2 µM) |  |  |
| Cc1nc(O)c(Cl)c(N(C)CC2CCN(C)CC2)n1 | ≤ 4.74 | ≤ 10.7 | 7.64 |  |  |  |
| Cc1cn(CCN2CCN(c3ccccc3-c3cc(C#N)cc(C(=O)NCCCN4CCCC4)c3)CC2)c2ccccc12 | 120 | 190 | 0.338 | 31.7 (≈ 55.2 µM) |  |  |
| C[C@]1(O)CN(C(=O)Cn2cnc3ccccc3c2=O)CC[C@@H]1Oc1ccccc1 | 7.14 | 44.7 | 11.7 |  |  |  |
| N#Cc1ccc(COc2cnc3ccccc3n2)cc1 |  |  | 0.507 | 0.19 (≈ 0.727 µM) |  |  |
| Cc1cc(NC(=O)C2CCOCC2)sn1 | ≤ 4.74 | ≤ 10.7 | 0.91 | 56.5 (≈ 250 µM) |  |  |
| NC(=O)COc1ncnc2ccccc12 | ≤ 4.74 | ≤ 10.7 | 1.27 | 47.9 (≈ 235 µM) |  |  |
| COc1ccccc1CNC(=O)C(C)N1CCCN(c2ccccc2C#N)CC1 (configuration not stated) | 2190 | 4020 | 1.51 | 46.9 (≈ 119 µM) |  |  |
| O=C(Nc1ccc2ccccc2n1)c1ccc(N2CCOC2=O)cc1 | 5.17 | 45.6 | 0.594 | 2.85 (≈ 8.55 µM) | 0.0281 | 0.0117 |
| COC1(c2nc(Cc3ccccc3)no2)CCN(Cc2cnc(C)o2)CC1 | 18 | 285 | 1.12 |  |  |  |
| CC(COc1ccccc1Cc1ccccc1)N1CCCCC1 (configuration not stated) | 12.5 | 2880 | 1.3 |  |  |  |
| CNC(=O)c1ccc(N2CCCC2)nc1 | 44.7 | 58.1 | 0.58 | 34.7 (≈ 169 µM) |  |  |
| Cc1cc(C(=O)N2CCS(=O)(=O)CC2)c(C)o1 | ≤ 4.74 | ≤ 10.7 |  |  |  |  |
| COc1ccc(CN2CCC(c3nc(C(C)C)no3)CC2)c(F)c1 | 35 | 1710 | 0.777 | 47.1 (≈ 141 µM) |  |  |
